Measured values taken from patent US8916549B2, “Thienooxazepine derivative” (Takeda Pharmaceutical Company Limited, priority 2009, dated 2014).
Counter-ions that a name gives are not always drawn.

molecular target: serotonin 5-HT2C receptor (isoform type VSV, stably expressing CHO cell) (Homo sapiens, UniProt P28335, I156V/I160V/N158S); test: cell-based; details: read-out: ratio to maximum response by 5-HT (1 μM)
Sequence (P28335 33-458 I156V/N158S/I160V limits assumed): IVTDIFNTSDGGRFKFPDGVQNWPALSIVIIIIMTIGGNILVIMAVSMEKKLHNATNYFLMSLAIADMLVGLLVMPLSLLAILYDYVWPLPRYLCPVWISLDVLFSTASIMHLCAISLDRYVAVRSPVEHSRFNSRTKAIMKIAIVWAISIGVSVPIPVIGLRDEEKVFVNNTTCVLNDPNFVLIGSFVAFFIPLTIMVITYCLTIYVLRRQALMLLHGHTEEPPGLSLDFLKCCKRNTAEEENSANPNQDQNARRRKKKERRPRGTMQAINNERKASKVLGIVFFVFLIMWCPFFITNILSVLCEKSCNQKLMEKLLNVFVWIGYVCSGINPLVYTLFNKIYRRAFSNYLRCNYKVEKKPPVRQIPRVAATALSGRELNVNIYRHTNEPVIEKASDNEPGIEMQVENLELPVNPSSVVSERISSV

`Fc1cccc(-c2csc3c2OCCNC3)c1` [Example 2, 8-(3-fluorophenyl)-2,3,4,5-tetrahydrothieno[2,3-f][1,4]oxazepine 1 hydrochloride] and `C[C@H]1CNCc2scc(-c3cccc(F)c3)c2O1` [Example 12, (2S)-8-(3-fluorophenyl)-2-methyl-2,3,4,5-tetrahydrothieno[2,3-f][1,4]oxazepine 1 hydrochloride] are the same in Emax: 101% for the first, 101% for the second.

First: c1sc2c(c1C1CC1)OCCNC2 [Example 3, 8-cyclopropyl-2,3,4,5-tetrahydrothieno[2,3-f][1,4]oxazepine 1 hydrochloride]
Second: c1sc2c(c1C1CCC1)OCCNC2 [Example 5, 8-cyclobutyl-2,3,4,5-tetrahydrothieno[2,3-f][1,4]oxazepine 1 hydrochloride]
The Emax of the first is lower: 98% for the first, 107% for the second.

First: CC(C)c1csc2c1OCCNC2 [Example 4, 8-(1-methylethyl)-2,3,4,5-tetrahydrothieno[2,3-f][1,4]oxazepine 1 hydrochloride]
Second: CC(c1csc2c1OCCNC2)C(F)(F)F (stereo not drawn) [Example 20, 8-(2,2,2-trifluoro-1-methylethyl)-2,3,4,5-tetrahydrothieno[2,3-f][1,4]oxazepine 1 hydrochloride]
The Emax of the first is higher: 99% for the first, 85% for the second.

Compared with `COc1cccc(-c2csc3c2OC(C)CNC3)c1` (stereo not drawn) [Example 6, 8-(3-methoxyphenyl)-2-methyl-2,3,4,5-tetrahydrothieno[2,3-f][1,4]oxazepine 1 hydrochloride], `CC(C)c1csc2c1O[C@@H](C)CNC2` [Example 15, (2S)-2-methyl-8-(1-methylethyl)-2,3,4,5-tetrahydrothieno[2,3-f][1,4]oxazepine 1 hydrochloride] is lower in Emax: 97% for the first, 96% for the second.

Compared with `C[C@H]1CNCc2scc(C3CC3)c2O1` [Example 14, (2S)-8-cyclopropyl-2-methyl-2,3,4,5-tetrahydrothieno[2,3-f][1,4]oxazepine 1 hydrochloride], `CCCc1csc2c1O[C@@H](C)CNC2` [Example 16, (2S)-2-methyl-8-propyl-2,3,4,5-tetrahydrothieno[2,3-f][1,4]oxazepine 1 hydrochloride] is lower in Emax: 100% for the first, 97% for the second.

First: Cc1sc2c(c1C1CC1)OCCNC2 [Example 17, 8-cyclopropyl-7-methyl-2,3,4,5-tetrahydrothieno[2,3-f][1,4]oxazepine 1 hydrochloride]
Second: CC(c1csc2c1O[C@@H](C)CNC2)C(F)(F)F (stereo partly drawn) [Example 21, (2S)-2-methyl-8-(2,2,2-trifluoro-1-methylethyl)-2,3,4,5-tetrahydrothieno[2,3-f][1,4]oxazepine 1 hydrochloride]
The Emax of the first is lower: 91% for the first, 94% for the second.
